Legend:
Format in all cases: in vivo
Echinochloa crus-galli [1] = test: Test Example 1: herbicidal effect test by treatment of rice paddy soil (immediately after seeding); conditions: 120 g/10a active ingredient, dry weight vs untreated area, 14 days after treatment
Procedure, shortened: (§1)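 Paddy soil in pots with compound fertilizer, puddled; 30 seeds per species sown at 0–1 cm, flooded ~3 cm, greenhouse. Water-diluted emulsions dropped onto water immediately after seeding at 120 g active ingredient per 10 ares, duplicate. Herbicidal rate (%) from plant dry weight versus untreated, 14 days after treatment.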

Scirpus juncoides [2] = test: as above; conditions: 120 g/10a active ingredient, dry weight vs untreated area, 14 days after treatment
Procedure, shortened: as §1

[3] = test system: broad leaf weeds (Lindernia pyxidaria and Monochoria vaginalis); test: as above; conditions: 120 g/10a active ingredient, dry weight vs untreated area, 14 days after treatment
Procedure, shortened: as §1

Echinochloa crus-galli [4] = test: Test Example 2: herbicidal effect test by treatment during growing period in paddy rice cultivation (seven days after seeding); conditions: 120 g/10a active ingredient, assessed 14 days after treatment, dry weight vs untreated area
Procedure, shortened: (§2)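 Seeds sown 0–1 cm deep in puddled, fertilised paddy soil with about 3 cm standing water in a glass greenhouse. Diluted emulsion dropped into the water seven days after seeding at 120 g active ingredient per 10 ares. Herbicidal rate (%) from mean dry weight vs untreated, duplicate, 14 days after treatment.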

Scirpus juncoides [5] = test: as above; conditions: 120 g/10a active ingredient, assessed 14 days after treatment, dry weight vs untreated area
Procedure, shortened: as §2

[6] = test system: broad leaf weeds (Lindernia pyxidaria and Monochoria vaginalis); test: as above; conditions: 120 g/10a active ingredient, assessed 14 days after treatment, dry weight vs untreated area
Procedure, shortened: as §2

Amaranthus viridis [7] = test: Test Example 3: herbicidal effect test by treatment of dry field farming soil (one day after seeding); conditions: 120 g/10a active ingredient, evaluated 14 days after treatment
Procedure, shortened: (§3)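 Alluvial dry-field soil in pots, top 1 cm mixed with 20 seeds per weed species. One day after seeding, the water-diluted emulsion was sprayed onto the soil surface at 100 L per 10 ares (120 g active ingredient per 10 ares). Duplicate pots; herbicidal rate (%) from plant dry weight versus untreated, 14 days after treatment.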

Chenopodium album [8] = test: as above; conditions: 120 g/10a active ingredient, evaluated 14 days after treatment
Procedure, shortened: as §3

Echinochloa crus-galli [9] = test: as above; conditions: 120 g/10a active ingredient, evaluated 14 days after treatment
Procedure, shortened: as §3

southern crabgrass [10] = test: as above; conditions: 120 g/10a active ingredient, evaluated 14 days after treatment
Procedure, shortened: as §3

Amaranthus viridis [11] = test: Test Example 4: herbicidal effect test by treatment of leave and stem in dry field farming (seven days after seeding); conditions: 120 g/10a active ingredient; emulsion sprayed seven days after seeding; evaluated 14 days after treatment
Procedure, shortened: (§4)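 Duplicate pots were scored 14 days post-spray by dry weight, herbicidal rate = {1 − treated/untreated average dry weight} × 100. The water-diluted emulsion, equivalent to 120 g active ingredient per 10 ares in 100 L, was applied seven days after sowing 20 seeds each into the upper 1 cm of alluvial soil.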

Chenopodium album [12] = test: as above; conditions: 120 g/10a active ingredient; emulsion sprayed seven days after seeding; evaluated 14 days after treatment
Procedure, shortened: as §4

Echinochloa crus-galli [13] = test: as above; conditions: 120 g/10a active ingredient; emulsion sprayed seven days after seeding; evaluated 14 days after treatment
Procedure, shortened: as §4

southern crabgrass [14] = test: as above; conditions: 120 g/10a active ingredient; emulsion sprayed seven days after seeding; evaluated 14 days after treatment
Procedure, shortened: as §4

Structure (SMILES) | Herbicidal rate (%) Echinochloa crus-galli (Echinochloa crus-galli [1]) [%] | Herbicidal rate (%) Scirpus juncoides (Scirpus juncoides [2]) [%] | Herbicidal rate (%) Lindernia pyxidaria [3] [%] | Herbicidal rate (%) Monochoria vaginalis [3] [%] | Herbicidal rate (%) Echinochloa crus-galli (Echinochloa crus-galli [4]) [%] | Herbicidal rate (%) Scirpus juncoides (Scirpus juncoides [5]) [%] | Herbicidal rate (%) Lindernia pyxidaria [6] [%] | Herbicidal rate (%) Monochoria vaginalis [6] [%] | herbicidal rate, Amaranthus viridis (Amaranthus viridis [7]) [%] | herbicidal rate, Chenopodium album (Chenopodium album [8]) [%] | herbicidal rate, Echinochloa crus-galli (Echinochloa crus-galli [9]) [%] | herbicidal rate, southern crabgrass (southern crabgrass [10]) [%] | herbicidal effect (herbicidal rate), Amaranthus viridis (Amaranthus viridis [11]) [%] | herbicidal effect (herbicidal rate), Chenopodium album (Chenopodium album [12]) [%] | herbicidal effect (herbicidal rate), Echinochloa crus-galli (Echinochloa crus-galli [13]) [%] | herbicidal effect (herbicidal rate), southern crabgrass (southern crabgrass [14]) [%]
COC(=O)N(c1ccccc1Cc1c(C)n(CC(C)C)oc1=O)S(=O)(=O)C(F)(F)F [Compound 1-580] | 90 | 90 | 90 | 90 | 90 | 90 | 90 | 90 | 90 | 90 | 90 | 90 | 40 | 40 | 90 | 90
C=C(C)Cn1oc(=O)c(Cc2ccccc2NS(=O)(=O)C(F)(F)F)c1C [Compound 1-137] | 90 | 90 | 90 | 70 | 90 | 80 | 40 | 60 | 40 | 40 | 70 | 50 | 80 | 0 | 80 | 0
Cc1c(Cc2ccccc2NS(=O)(=O)C(F)(F)F)c(=O)on1C(C)C [Compound 1-100] | 90 | 90 | 100 | 100 | 90 | 90 | 90 | 100 | 100 | 100 | 100 | 100 | 30 | 90 | 90 | 90
Cc1c(Cc2ccccc2N(S(C)(=O)=O)S(=O)(=O)C(F)(F)F)c(=O)on1CC(C)(C)C [Compound 1-893] | 90 | 90 | 90 | 90 | 90 | 90 | 90 | 90 | 90 | 90 | 90 | 90 | 40 | 40 | 90 | 90
CCCCC(C)n1oc(=O)c(Cc2ccccc2NS(=O)(=O)C(F)(F)F)c1C (stereo not drawn) [Compound 1-120] | 100 | 100 | 100 | 100 | 90 | 90 | 80 | 80 | 50 | 50 | 90 | 90 | 60 | 50 | 90 | 80
CCC(CC)Cn1oc(=O)c(Cc2ccccc2N(S(=O)(=O)C(F)(F)F)S(=O)(=O)C(F)(F)F)c1C [Compound 1-973] | 100 | 100 | 100 | 80 | 100 | 90 | 60 | 90 | 90 | 90 | 100 | 100 | 40 | 0 | 90 | 80
CCC(C)Cn1oc(=O)c(Cc2ccccc2N(C(C)=O)S(=O)(=O)C(F)(F)F)c1C (stereo not drawn) [Compound 1-300] | 100 | 90 | 80 | 70 | 100 | 80 | 70 | 90 | 80 | 60 | 90 | 100 | 70 | 60 | 90 | 90
CCC(C)n1oc(=O)c(Cc2ccccc2N(C(=O)c2ccccc2)S(=O)(=O)C(F)(F)F)c1C (stereo not drawn) [Compound 1-474] | 90 | 90 | 90 | 90 | 90 | 90 | 90 | 90 | 90 | 90 | 90 | 90 | 40 | 40 | 90 | 90
CCN(CC)C(=O)N(c1ccccc1Cc1c(C)n(C(C)c2ccccc2)oc1=O)S(=O)(=O)C(F)(F)F (stereo not drawn) [Compound 1-886] | 90 | 90 | 90 | 90 | 90 | 90 | 90 | 90 | 90 | 90 | 90 | 90 | 40 | 40 | 90 | 90
